Measured values taken from patent publication EP4600262A1, “KERATIN YK93-5, PREPARATION METHOD, AND PHARMACEUTICAL COMPOSITION AND USE THEREOF” (INSTITUTE OF MATERIA MEDICA, CHINESE ACADEMY OF MEDICAL …, priority 2022, dated 2024).
Structures can show the parent of a compound that is named as a salt.

Columns and labels:
[1] = test system: Lewis lung cancer
Protocol: • Preparation of experimental animals: The experimental animals were adapted to the experimental environment (temperature 22°C±2°C, relative humidity 50%±2%) for 1 day. • Subcutaneous inoculation of Lewis cell suspension to replicate mouse breast cancer model: The Lewis tumor tissue was ground into a suspension with a glass homogenizer, the tumor suspension was aspirated with a syringe, the number of live cells was calculated, the concentration of the cells was adjusted to 2.6*10^6/ml with physiological saline, and then the suspension was injected to the left armpit of the mouse with 0.2 ml/mouse. […] On the day of the treatment, the weight was measured, 20µl of blood was obtained from the orbital blood and the routine blood analysis was performed. The tumor blocks were stripped, weighed and photographed, and the tumor suppression rate was calculated.
The tumor suppression rate [(The average weight of the tumor in the normal control group - the average weight of the tumor in the experimental group) / The average weight of the tumor in the normal control group × 100 %] and the average value, standard deviation and standard errors of tumor weight were calculated. The data from the groups were compared with each other by T.TEST, and P<0.05 was considered as a significant difference.

[2] = test system: B16F10 melanoma; settings: CTX 0.1 g/kg once a week, YK93-5 2 g/kg daily
Protocol: • Preparation of experimental animals: The experimental animals were adapted to the experimental environment (temperature 22°C±2°C, relative humidity 50%±2%) for 1 day. • Subcutaneous inoculation of B16F10 cell suspension to replicate a mouse melanoma model: Under sterile conditions, the tumor block was removed, ground into tumor fluid, the concentration was adjusted with physiological saline to 2.58 × 10^6 /ml, and 0.2 ml was taken to evenly inoculate subcutaneously on the armpit back of mice. On the next day, the animals were randomly grouped and administration began (recorded as Day 0). […] On the day of treatment, weight was measured, 20µL of blood was obtained by taking blood from the eye socket and the blood routine analysis was performed, the tumor block was peeled off, weighed and photographed, and the tumor suppression rate was calculated.
The tumor suppression rate [(The average weight of the tumor in the normal control group - the average weight of the tumor in the experimental group) / The average weight of the tumor in the normal control group × 100 %] and average value, standard deviation and standard errors of tumor weight were calculated. The data from the groups were compared with each other by T.TEST, and P<0.05 was considered as a significant difference.

[3] = test system: mouse pain model; assay: mouse pain model (1% acetic acid writhing); type: in vivo, Male Kunming mice; settings: within 15 minutes after 1% acetic acid intraperitoneally; Tramadol Hydrochloride 50mg/kg, YK93-5 2g/kg by gavage once a day for 7 days
Protocol: 30 minutes after the last administration, 1% acetic acid was administered intraperitoneally, and the writhing times of mice within 15 minutes was recorded, and the inhibition rate of drug-induced writhing reaction was calculated. The observation criteria were concave abdominal cavity, extended hind limbs, and raised buttocks.
The inhibition rate was calculated by (Mean number of writhing reactions in the normal control group - Mean number of writhing reactions in the treatment group)/Mean number of writhing reactions in the normal control group *100%. The mean value, standard deviation, and standard error of the number of writhing was recorded, and the data from the groups were compared with each other by T.TEST, and P<0.05 was considered as a significant difference.

[4] = test system: mouse prostatic hyperplasia model; assay: mouse prostatic hyperplasia model (propionate testosterone, androgen loading); type: in vivo, Male Kunming mice; settings: finasteride 1mg/kg, YK93-5 0.5g/kg
Protocol: • Animals: Male Kunming mice, weight: 18-20 grams • Drugs: propionate testosterone injection (Ningbo Second Hormon Factory); finasteride (Merck Sharp & Dohme, MSD), YK93-5 • Instruments: electronic balance, timer
• Normal control group; • Model group: Androgen loading Model; • Positive control group: finasteride (1mg/kg) group; • YK93-5 (0.5g/kg) group.
• Preparation of experimental animals: The experimental animals were adapted to the experimental environment (temperature 22°C±2°C, relative humidity 50%±2%) for 1 day. • Subcutaneous injection of propionate testosterone to replicate mice prostatic hyperplasia model: Mice were randomly grouped 10-12 in each group before the model being established. Propionate testosterone (0.01mg/kg) in soybean oil was injected subcutaneously, once a day for 30 consecutive days. Mice in the normal control group were injected subcutaneously with an equal volume of sodium carboxymethyl cellulose. Immediately after the model was established, finasteride 1mg/kg, or YK93-5 0.5g/kg were orally administered. Mice were weighed on the next day. After 30 days of administration, mice were weighed, executed. The prostate was excised through a median incision in the lower abdomen, the wet weight was weighed, and the prostate index was calculated by the wet weight of the prostate (mg)/body weight of the mouse (g). […] with 4% paraformaldehyde, embedded in paraffin, and cut into thin slices with the largest surface. Hematoxylin and eosin staining were used to examine the pathological changes of tissue slices.
The average value, standard deviation and standard error of the prostate index and pathological score in each group were calculated. The data from the groups were compared with each other by TTEST, and P<0.05 was considered as a significant difference.

For `O=P1(N(CCCl)CCCl)NCCCO1` (centres unmarked) [Cyclophosphamide], the “Change of weight (g) After administration” value ([1]; body weight after administration, cyclophosphamide 0.1 g/kg intraperitoneally single time, YK93-5 2 g/kg intragastric daily for 17 days) was 21.07 ± 1.61 g, the “Change of weight (g) Before administration” value ([1]; body weight before administration) was 20.52 ± 1.83 g and the “Tumor suppression (%)” value ([1]; cyclophosphamide 0.1 g/kg intraperitoneally single time, YK93-5 2 g/kg intragastric daily for 17 days) was 91.22%. For the same compound, the “Tumor weight” value [2] was 0.26 ± 0.11 g.

With `COc1cccc(C2(O)CCCCC2CN(C)C)c1` (centres unmarked) [Tramadol Hydrochloride] the Number of writhing [3] was 1.75±4.56.

`CC(C)(C)NC(=O)[C@H]1CC[C@H]2[C@@H]3CC[C@H]4NC(=O)C=C[C@]4(C)[C@H]3CC[C@]12C` [finasteride] was tested, and the “wet weight of the prostate” value ([4]; after 30 days of oral administration) was 40.4 ± 9.2 mg, the “pathological damage of prostatic hyperplasia (histopathology, H&E)” value ([4]; compared with the model group, 30 days oral) was “the trend of hyperplasia improves, but there is no statistical difference” and the prostate index ([4]; wet weight of the prostate (mg)/body weight of the mouse (g), 30 days oral) was 0.95±0.24.
